Laboratory results taken from patent publication US5047397A, “Linear analogs of atrial natriuretic peptides” (California Biotechnology Inc., priority 1988, dated 1991).
Where a SMILES comes first, the peptide text is derived from it. [ ]: non-standard residue; d: D form. The star is where a group is joined. Propanoyl(3-indol-3-yl) = O=C(CCc1c[nH]c2ccccc12)*; Acetyl(1-adamantyl) = O=C(CC12CC3CC(CC(C3)C1)C2)*; Phenylacetyl(4-Ph) = O=C(Cc1ccc(-c2ccccc2)cc1)*; Acetyl(1-naphthyloxy) = O=C(COc1cccc2ccccc12)*; Acetyl(2-naphthyloxy) = O=C(COc1ccc2ccccc2c1)*; Acetyl(2-naphthyl) = O=C(Cc1ccc2ccccc2c1)*; Fmoc = O=C(OCC1c2ccccc2-c2ccccc21)*; Aib = CC(C)(N)C(=O)O; Ahx = NCCCCCC(=O)O; Ava = NCCCCC(=O)O; Sar = CNCC(=O)O

Biological target: T1, specific ANP receptor sites on BASM or BAE cells (Bos taurus, UniProt P10730)
T1 construct: specific receptor sites on BASM or BAE cells; endogenous in cells; host or cells: cultured BASM and BAE cells
T1 sequence (P10730 42-537): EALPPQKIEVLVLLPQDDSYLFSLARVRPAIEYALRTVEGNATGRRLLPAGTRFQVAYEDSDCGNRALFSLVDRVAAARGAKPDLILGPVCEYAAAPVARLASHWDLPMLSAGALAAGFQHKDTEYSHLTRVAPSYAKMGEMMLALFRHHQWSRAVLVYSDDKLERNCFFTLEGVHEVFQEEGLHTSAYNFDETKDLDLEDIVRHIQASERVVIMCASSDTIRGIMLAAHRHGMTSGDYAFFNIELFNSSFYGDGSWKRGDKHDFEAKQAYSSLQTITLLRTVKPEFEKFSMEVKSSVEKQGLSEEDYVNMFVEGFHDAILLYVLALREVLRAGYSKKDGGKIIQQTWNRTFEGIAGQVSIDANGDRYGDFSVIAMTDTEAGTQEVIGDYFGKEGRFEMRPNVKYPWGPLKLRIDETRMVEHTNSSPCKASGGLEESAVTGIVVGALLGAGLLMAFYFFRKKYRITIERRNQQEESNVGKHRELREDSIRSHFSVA
Test: Competitive displacement receptor binding of (125I)-rANP(126-150) on cultured cells
Design: species or system bovine
Conditions: concentration of unlabeled peptide displacing 50% of maximal binding of 0.5 nM (125I)-rANP(126-150); BASM or BAE cells
From the text: Analogous "competitive displacement" receptor binding assays are considered commonplace in the art for examining specific ligand-receptor interactions.
Assuming these ANP analogs act at one or more ANP receptor sites, then increased receptor affinity should reflect increased biological potency.

Ki(app) [nM] | Compound
39.9 | CC[C@H](C)[C@H](NC(=O)[C@H](CCCNC(=N)N)NC(=O)[C@H](CC(=O)O)NC(=O)[C@@H](NC(=O)[C@H](CCCNC(=N)N)NC(=O)CCCCNC(=O)COc1ccc2ccccc2c1)[C@@H](C)CC)C(N)=O [AP307, (2-Naphthoxyacetyl)-NH(CH2)4 CO-R-I-D-R-I-NH2] ({Acetyl(2-naphthyloxy)-Ava}-RIDRI-NH2)
10.33 | CC[C@H](C)[C@H](NC(=O)[C@H](CCCNC(=N)N)NC(=O)[C@H](CC(=O)O)NC(=O)[C@@H](NC(=O)[C@H](CCCNC(=N)N)NC(=O)CNC(=O)CNC(=O)OCC1c2ccccc2-c2ccccc21)[C@@H](C)CC)C(N)=O [AP311, (FMOC)--G--G--R--I--D--R--I--NH2] (Fmoc-GGRIDRI-NH2)
14.5 | CC[C@H](C)[C@H](NC(=O)[C@H](CCCNC(=N)N)NC(=O)[C@H](CC(=O)O)NC(=O)[C@@H](NC(=O)[C@H](CCCNC(=N)N)NC(=O)CNC(=O)CNC(=O)Cc1ccc2ccccc2c1)[C@@H](C)CC)C(N)=O [AP314, (2-NA)--G--G--R--I--D--R--I--NH2] ({Acetyl(2-naphthyl)}-GGRIDRI-NH2)
50.4 | CC[C@H](C)[C@H](NC(=O)[C@H](CCCNC(=N)N)NC(=O)[C@H](CC(=O)O)NC(=O)[C@@H](NC(=O)[C@H](CCCNC(=N)N)NC(=O)CNC(=O)CNC(=O)COc1cccc2ccccc12)[C@@H](C)CC)C(N)=O [AP316, (1-NOA)--G--G--R--I--D--R--I--NH2] ({Acetyl(1-naphthyloxy)}-GGRIDRI-NH2)
6.0 | CC[C@H](C)[C@H](NC(=O)[C@H](CCCNC(=N)N)NC(=O)[C@H](CC(=O)O)NC(=O)[C@@H](NC(=O)[C@H](CCCNC(=N)N)NC(=O)CNC(=O)CNC(=O)COc1ccc2ccccc2c1)[C@@H](C)CC)C(N)=O [AP319, (2-NOA)--G--G--R--I--D--R--I--NH2] ({Acetyl(2-naphthyloxy)}-GGRIDRI-NH2)
47.4 | CC[C@H](C)[C@H](NC(=O)[C@H](CCCNC(=N)N)NC(=O)[C@H](CC(=O)O)NC(=O)[C@@H](NC(=O)[C@H](CCCNC(=N)N)NC(=O)CN(C)C(=O)CNC(=O)Cc1ccc2ccccc2c1)[C@@H](C)CC)C(N)=O [AP320, (2-NA)--G--(Sar)--R--I--D--R--I--NH2] ({Acetyl(2-naphthyl)}-G[Sar]RIDRI-NH2)
33.0 | CC[C@H](C)[C@H](NC(=O)[C@H](CCCNC(=N)N)NC(=O)[C@H](CC(=O)O)NC(=O)[C@@H](NC(=O)[C@H](CCCNC(=N)N)NC(=O)C(C)(C)NC(=O)CNC(=O)Cc1ccc2ccccc2c1)[C@@H](C)CC)C(N)=O [AP321, (2-NA)--G--(Aib)--R--I--D--R--I--NH2] ({Acetyl(2-naphthyl)}-G[Aib]RIDRI-NH2)
> 100 | CC[C@H](C)[C@H](NC(=O)[C@H](CCCNC(=N)N)NC(=O)[C@H](CC(=O)O)NC(=O)[C@@H](NC(=O)[C@H](CCCNC(=N)N)NC(=O)CNC(=O)[C@@H](C)NC(=O)COc1ccc2ccccc2c1)[C@@H](C)CC)C(N)=O [AP322, (2-NOA)--A^ --G--R--I--D--R--I--NH2] ({Acetyl(2-naphthyloxy)}-[dA]GRIDRI-NH2)
> 100 | CC[C@H](C)[C@H](NC(=O)[C@H](CCCNC(=N)N)NC(=O)[C@H](CC(=O)O)NC(=O)[C@@H](NC(=O)[C@H](CCCNC(=N)N)NC(=O)CCCCCNC(=O)COc1ccc2ccccc2c1)[C@@H](C)CC)C(N)=O [AP325, (2-NOA)--NH(CH2)5 CO--R--I--D--R--I--NH2] ({Acetyl(2-naphthyloxy)-Ahx}-RIDRI-NH2)

Further lines, the compound ahead of its results:

Compound | Ki(app) [nM]
CC[C@H](C)[C@H](NC(=O)[C@H](CCCNC(=N)N)NC(=O)[C@H](CC(=O)O)NC(=O)[C@@H](NC(=O)[C@H](CCCNC(=N)N)NC(=O)[C@@H](C)NC(=O)CNC(=O)[C@H](Cc1ccccc1)NC(=O)[C@H](C)N)[C@@H](C)CC)C(=O)NCC(=O)N[C@@H](C)C(N)=O [AP157, A--F--G--A^ --R--I--D--R--I--G--A--NH2] (H-AFG[dA]RIDRIGA-NH2) | 5.90
CC[C@H](C)[C@H](NC(=O)[C@H](CCCNC(=N)N)NC(=O)[C@H](CC(=O)O)NC(=O)[C@@H](NC(=O)[C@@H](CCCNC(=N)N)NC(=O)CNC(=O)CNC(=O)[C@H](Cc1ccccc1)NC(=O)[C@H](C)N)[C@@H](C)CC)C(=O)NCC(=O)N[C@@H](C)C(N)=O [AP301, A--F--G--G--R^ --I--D--R--I--G--A--NH2] (H-AFGG[dR]IDRIGA-NH2) | > 200
CC[C@@H](C)[C@@H](NC(=O)[C@H](CCCNC(=N)N)NC(=O)CNC(=O)CNC(=O)[C@H](Cc1ccccc1)NC(=O)[C@H](C)N)C(=O)N[C@@H](CC(=O)O)C(=O)N[C@@H](CCCNC(=N)N)C(=O)N[C@H](C(=O)NCC(=O)N[C@@H](C)C(N)=O)[C@@H](C)CC [AP302, A--F--G--G--R--I^ --D--R--I--G--A--NH2] (H-AFGGR[dI]DRIGA-NH2) | 18.9
CC[C@H](C)[C@H](NC(=O)[C@H](CCCNC(=N)N)NC(=O)[C@@H](CC(=O)O)NC(=O)[C@@H](NC(=O)[C@H](CCCNC(=N)N)NC(=O)CNC(=O)CNC(=O)[C@H](Cc1ccccc1)NC(=O)[C@H](C)N)[C@@H](C)CC)C(=O)NCC(=O)N[C@@H](C)C(N)=O [AP303, A--F--G--G--R--I--D^ --R--I--G--A--NH2] (H-AFGGRI[dD]RIGA-NH2) | > 200
CC[C@H](C)[C@H](NC(=O)[C@H](CCCNC(=N)N)NC(=O)CNC(=O)CNC(=O)[C@H](Cc1ccccc1)NC(=O)[C@H](C)N)C(=O)N[C@@H](CC(=O)O)C(=O)N[C@H](CCCNC(=N)N)C(=O)N[C@H](C(=O)NCC(=O)N[C@@H](C)C(N)=O)[C@@H](C)CC [AP304, A--F--G--G--R--I--D--R^ --I--G--A--NH2] (H-AFGGRID[dR]IGA-NH2) | 95.6
CC[C@@H](C)[C@@H](NC(=O)[C@H](CCCNC(=N)N)NC(=O)[C@H](CC(=O)O)NC(=O)[C@@H](NC(=O)[C@H](CCCNC(=N)N)NC(=O)CNC(=O)CNC(=O)[C@H](Cc1ccccc1)NC(=O)[C@H](C)N)[C@@H](C)CC)C(=O)NCC(=O)N[C@@H](C)C(N)=O [AP305, A--F--G--G--R--I--D--R--I^ --G--A--NH2] (H-AFGGRIDR[dI]GA-NH2) | 70.62
CC[C@H](C)[C@H](NC(=O)[C@H](CCCNC(=N)N)NC(=O)[C@H](CC(=O)O)NC(=O)[C@@H](NC(=O)[C@H](CCCNC(=N)N)NC(=O)CNC(=O)CNC(=O)Cc1ccc2ccccc2c1)[C@@H](C)CC)C(=O)NCC(=O)N[C@@H](C)C(N)=O [AP306, (2--Naphthylacetyl)-G-G-R-I-D-R-I-G-A-NH2] ({Acetyl(2-naphthyl)}-GGRIDRIGA-NH2) | 2.03
CC[C@H](C)[C@H](NC(=O)[C@H](CCCNC(=N)N)NC(=O)[C@H](CC(=O)O)NC(=O)[C@@H](NC(=O)[C@H](CCCNC(=N)N)NC(=O)CNC(=O)CNC(=O)CC12CC3CC(CC(C3)C1)C2)[C@@H](C)CC)C(N)=O [AP309, (1-AA)--G--G--R--I--D--R--I--NH2] ({Acetyl(1-adamantyl)}-GGRIDRI-NH2) | 30.0
CC[C@H](C)[C@H](NC(=O)[C@H](CCCNC(=N)N)NC(=O)[C@H](CC(=O)O)NC(=O)[C@@H](NC(=O)[C@H](CCCNC(=N)N)NC(=O)CNC(=O)CNC(=O)OCC1c2ccccc2-c2ccccc21)[C@@H](C)CC)C(=O)NCC(=O)N[C@@H](C)C(N)=O [AP312, (FMOC)--G--G--R--I--D--R--I--G--A--NH2] (Fmoc-GGRIDRIGA-NH2) | 6.27
CC[C@H](C)[C@H](NC(=O)[C@H](CCCNC(=N)N)NC(=O)[C@H](CC(=O)O)NC(=O)[C@@H](NC(=O)[C@H](CCCNC(=N)N)NC(=O)CNC(=O)CNC(=O)CCc1c[nH]c2ccccc12)[C@@H](C)CC)C(=O)NCC(=O)N[C@@H](C)C(N)=O [AP313, (IP)--G--G--R--I--D--R--I--G--A--NH2] ({Propanoyl(3-indol-3-yl)}-GGRIDRIGA-NH2) | 4.52
CC[C@H](C)[C@H](NC(=O)[C@H](CCCNC(=N)N)NC(=O)[C@H](CC(=O)O)NC(=O)[C@@H](NC(=O)[C@H](CCCNC(=N)N)NC(=O)CNC(=O)CNC(=O)Cc1ccc(-c2ccccc2)cc1)[C@@H](C)CC)C(N)=O [AP317, (4-BPA)--G--G--R--I--D--R--I--NH2] ({Phenylacetyl(4-Ph)}-GGRIDRI-NH2) | 123.8
CC[C@H](C)[C@H](NC(=O)[C@H](CCCNC(=N)N)NC(=O)[C@H](CC(=O)O)NC(=O)[C@@H](NC(=O)[C@H](CCCNC(=N)N)NC(=O)CNC(=O)CNC(=O)COc1ccc2ccccc2c1)[C@@H](C)CC)C(=O)NCC(=O)N[C@@H](C)C(N)=O [AP318, (2-NOA)--G--G--R--I--D--R--I--G--A--NH2] ({Acetyl(2-naphthyloxy)}-GGRIDRIGA-NH2) | 8.7
CC[C@H](C)[C@H](NC(=O)[C@H](CCCNC(=N)N)NC(=O)[C@H](CC(=O)O)NC(=O)[C@@H](NC(=O)[C@H](CCCNC(=N)N)NC(=O)CCCCNC(=O)OCC1c2ccccc2-c2ccccc21)[C@@H](C)CC)C(N)=O [AP323, (FMOC)--NH(CH2)4 CO--R--I--D--R--I--NH2] ({Fmoc-Ava}-RIDRI-NH2) | 162.6
CC[C@H](C)[C@H](NC(=O)[C@H](CCCNC(=N)N)NC(=O)[C@H](CC(=O)O)NC(=O)[C@@H](NC(=O)[C@H](CCCNC(=N)N)NC(=O)CCCCNC(=O)Cc1ccc2ccccc2c1)[C@@H](C)CC)C(N)=O [AP324, (2-NA)--NH(CH2)4 CO--R--I--D--R--I--NH2] ({Acetyl(2-naphthyl)-Ava}-RIDRI-NH2) | 48.5
